Assay results as given in patent publication US7842695B2, “Substituted pyrazole compounds” (Merck Patent GmbH, priority 2003, dated 2010).

These compounds were tested against 5-HT2A receptors (UniProt P14842) (assay: in-vitro affinity to 5-HT2A receptors, [3H]ketanserine displacement (Example A1)).
Format: binding
Text: The 5-HT2A receptors are exposed both to [^3H]ketanserine (a substance known for its affinity to the receptor) and also to the test compound. The decrease in the affinity of [^3H]ketanserine to the receptor is an indication of the affinity of the test substance to the 5-HT2A receptor.

Compound | IC50 [µM]
CC(C)(C)OC(=O)NC1CCN(Cc2cnn(-c3ccc(-c4ccc5c(c4)OCCO5)cc3)c2-c2ccco2)CC1 [Example 566, tert-Butyl (1-{1-[4-(2,3-dihydrobenzo-1,4-dioxin-6-yl)phenyl]-5-furan-2-yl-1H-pyrazol-4-ylmethyl}piperidin-4-yl)carbamate] | 0.011
CN1CCC(N(C)Cc2cnn(-c3ccc(-c4ccc(F)cc4)cc3)c2-c2ccco2)C1 (centres unmarked) [Example 575, [1-(4′-Fluorobiphenyl-4-yl)-5-furan-2-yl-1H-pyrazol-4-ylmethyl]methyl-(1-methyl-3-pyrrolidinyl)amine] | 0.0147
CCN(CC)Cc1cnn(-c2ccc(-c3ccc(F)cc3)cn2)c1-c1ccco1 [Example 675, Diethyl-{1-[5-(4-fluorophenyl)pyridin-2-yl]-5-furan-2-yl-1H-pyrazol-4-ylmethyl}amine] | 0.13
CCN(C)Cc1cnn(-c2ccc(-c3ccc(F)cc3)cc2)c1-c1c(C)noc1C [Example 597, [5-(3,5-Dimethylisoxazol-4-yl)-1-(4′-fluorobiphenyl-4-yl)-1H-pyrazol-4-ylmethyl]ethylmethylamine] | 0.023
Fc1ccccc1-c1c(CCN2CCOCC2)cnn1-c1ccc(-c2ccccc2)cc1 [Example 632, 4-{2-[1-Biphenyl-4-yl-5-(2-fluorophenyl)-1H-pyrazol-4-yl]ethyl}morpholine] | 0.04
CN1CCN(c2cnn(-c3ccc(-c4ccc5c(c4)OCO5)cc3)c2-c2ccccc2)CC1 [Example 565, 1-[1-(4-Benzo-1,3-dioxol-5-ylphenyl)-5-phenyl-1H-pyrazol-4-yl]-4-methylpiperazine] | 0.01
CC(C)CNCc1cnn(-c2ccc(-c3ccc(F)cc3)cc2)c1-c1ccco1 [Example 654, [1-(4′-Fluorobiphenyl-4-yl)-5-furan-2-yl-1H-pyrazol-4-ylmethyl]isobutylamine] | 0.061
COc1ccc(-c2ccc(-n3ncc(CNCc4cc[nH]n4)c3-c3ccco3)cc2)cc1 [Example 656, [5-Furan-2-yl-1-(4′-methoxybiphenyl-4-yl)-1H-pyrazol-4-ylmethyl]-(1H-pyrazol-3-ylmethyl)amine] | 0.071
COCCN1CCN(Cc2cnn(-c3ccc(-c4ccc(F)cc4)cc3)c2-c2cccc(OC)c2)CC1 [Example 685, 1-[1-(4′-Fluorobiphenyl-4-yl)-5-(3-methoxyphenyl)-1H-pyrazol-4-ylmethyl]-4-(2-methoxyethyl)piperazine] | 0.19
CN(CCc1ccccc1)Cc1cnn(-c2ccc(-c3ccc(F)cc3)cc2)c1-c1ccco1 [Example 579, [1-(4′-Fluorobiphenyl-4-yl)-5-furan-2-yl-1H-pyrazol-4-ylmethyl]methylphenethylamine] | 0.016
CCN(CC)CCCNCc1cnn(-c2ccc(-c3ccc(F)cc3)cc2)c1-c1ccco1 [Example 609, N,N-Diethyl-N′-[1-(4′-fluorobiphenyl-4-yl)-5-furan-2-yl-1H-pyrazol-4-ylmethyl]propane-1,3-diamine] | 0.029
{[1-(4′-Fluorobiphenyl-4-yl)-5-furan-2-yl-1H-pyrazol-4-ylmethyl]methylamino}phenylpropan-1-ol [Example 587] | 0.019
OCCCNCc1cnn(-c2ccc(-c3ccc(F)cc3)cc2)c1-c1ccco1 [Example 668, 3-{[1-(4′-Fluorobiphenyl-4-yl)-5-furan-2-yl-1H-pyrazol-4-ylmethyl]amino}propan-1-ol] | 0.094
CC1CCCN1Cc1cnn(-c2ccc(-c3ccc4c(c3)OCO4)cc2)c1-c1ccco1 (centres unmarked) [Example 616, 1-(4-Benzo-1,3-dioxol-5-ylphenyl)-5-furan-2-yl-4-(2-methylpyrrolidin-1-ylmethyl)-1H-pyrazole] | 0.032
COc1ccc(-c2ccc(-n3ncc(CN4CCN(C)CC4)c3-c3ccccc3F)cc2)cn1 [Example 648, 1-{5-(2-Fluorophenyl)-1-[4-(6-methoxypyridin-3-yl)phenyl]-1H-pyrazol-4-ylmethyl}-4-methylpiperazine] | 0.053
COCCN1CCN(Cc2cnn(-c3ccc(-c4ccc(F)cc4)cc3)c2-c2ccoc2)CC1 [Example 664, 1-[1-(4′-Fluorobiphenyl-4-yl)-5-furan-3-yl-1H-pyrazol-4-ylmethyl]-4-(2-methoxyethyl)piperazine] | 0.085
CN(C)CCN1CCN(Cc2cnn(-c3ccc(-c4ccc(F)cc4)cc3)c2-c2cccc(Cl)c2)CC1 [Example 701, (2-{4-[5-(3-Chlorophenyl)-1-(4′-fluorobiphenyl-4-yl)-1H-pyrazol-4-ylmethyl]piperazin-1-yl}ethyl)dimethylamine] | 0.47
O=C1CN(Cc2cnn(-c3ccc(-c4cccc(F)c4)cc3)c2-c2ccco2)CCN1 [Example 645, 4-[1-(3′-Fluorobiphenyl-4-yl)-5-furan-2-yl-1H-pyrazol-4-ylmethyl]piperazin-2-one] | 0.049
COCCNCc1cnn(-c2ccc(-c3ccc(F)cc3)cc2)c1-c1ccco1 [Example 603, [1-(4′-Fluorobiphenyl-4-yl)-5-furan-2-yl-1H-pyrazol-4-ylmethyl]-(2-methoxyethyl)amine] | 0.026
CCCCN(Cc1cnn(-c2ccc(-c3ccc(F)cc3)cc2)c1-c1ccco1)Cc1cnn(-c2ccc(-c3ccc(F)cc3)cc2)c1-c1ccco1 [Example 622, Butylbis-[1-(4′-fluorobiphenyl-4-yl)-5-furan-2-yl-1H-pyrazol-4-ylmethyl]amine] | 0.034
CCCCNCc1cnn(-c2ccc(-c3ccc(F)cc3)cc2)c1-c1ccco1 [Example 677, Butyl-[1-(4′-fluorobiphenyl-4-yl)-5-furan-2-yl-1H-pyrazol-4-ylmethyl]amine] | 0.13

Continued by falling IC50, values first:

IC50 [µM] | Compound
0.47 | Fc1ccc(-c2ccc(-n3ncc(CN4CCN(CCN5CCCCC5)CC4)c3-c3cccc(Cl)c3)cc2)cc1 [Example 702, 1-[5-(3-Chlorophenyl)-1-(4′-fluorobiphenyl-4-yl)-1H-pyrazol-4-ylmethyl]-4-(2-piperidin-1-ylethyl)piperazine]
0.43 | CC(=O)N(CCN1CCCCC1)Cc1cnn(-c2ccc(-c3ccc(F)cc3)cc2)c1-c1ccco1 [Example 699, N-[1-(4′-Fluorobiphenyl-4-yl)-5-furan-2-yl-1H-pyrazol-4-ylmethyl]-N-(2-piperidin-1-ylethyl)acetamide]
0.35 | COc1cc2c(cc1OC)CN(Cc1cnn(-c3ccc(-c4ccc(F)cc4)cc3)c1-c1ccco1)CC2 [Example 697, 2-[1-(4′-Fluorobiphenyl-4-yl)-5-furan-2-yl-1H-pyrazol-4-ylmethyl]-6,7-dimethoxy-1,2,3,4-tetrahydroisoquinoline]
0.2 | Fc1ccc(-c2ccc(-n3ncc(CN4CCN(C5CCCC5)CC4)c3-c3cccc(Cl)c3)cc2)cc1 [Example 686, 1-[5-(3-Chlorophenyl)-1-(4′-fluorobiphenyl-4-yl)-1H-pyrazol-4-ylmethyl]-4-cyclopentylpiperazine]
0.19 | CCCN1CCN(Cc2cnn(-c3ccc(-c4ccc(F)cc4)cc3)c2-c2cccc(OC)c2)CC1 [Example 684, 1-[1-(4′-Fluorobiphenyl-4-yl)-5-(3-methoxyphenyl)-1H-pyrazol-4-ylmethyl]-4-propylpiperazine]
0.12 | NC1CCN(Cc2cnn(-c3ccc(-c4cccc(F)c4)cc3)c2-c2ccco2)CC1 [Example 673, 1-[1-(3′-Fluorobiphenyl-4-yl)-5-furan-2-yl-1H-pyrazol-4-ylmethyl]piperidin-4-ylamine]
0.1 | COc1ccc(-c2c(CN3CCN(C)CC3)cnn2-c2ccc(-c3ccc(F)cc3)cc2)cc1 [Example 671, 1-[1-(4′-Fluorobiphenyl-4-yl)-5-(4-methoxyphenyl)-1H-pyrazol-4-ylmethyl]-4-methylpiperazine]
0.067 | Fc1ccc(-c2ccc(-n3ncc(CNCCc4ccncc4)c3-c3ccco3)cc2)cc1 [Example 655, [1-(4′-Fluorobiphenyl-4-yl)-5-furan-2-yl-1H-pyrazol-4-ylmethyl]-(2-pyridin-4-ylethyl)amine]
0.058 | CN1CCN(Cc2cnn(-c3ccc(-c4ccc[nH]4)cc3)c2-c2ccccc2F)CC1 [Example 653, 1-{5-(2-Fluorophenyl)-1-[4-(1H-pyrrol-2-yl)phenyl]-1H-pyrazol-4-ylmethyl}-4-methylpiperazine]
0.055 | CN1CCN(Cc2cnn(-c3ccc(-c4ccc5c(c4)OCCO5)cc3)c2-n2cccc2)CC1 [Example 651, 1-{1-[4-(2,3-Dihydrobenzo-1,4-dioxin-6-yl)phenyl]-5-pyrrol-1-yl-1H-pyrazol-4-ylmethyl}-4-methylpiperazine]
0.042 | CCC(CC)CNCc1cnn(-c2ccc(-c3ccc(OC)cc3)cc2)c1-c1ccco1 [Example 637]
0.039 | NC1CCN(Cc2cnn(-c3ccc(-c4ccc5c(c4)OCO5)cc3)c2-c2ccco2)CC1 [Example 631, 1-[1-(4-Benzo-1,3-dioxol-5-ylphenyl)-5-furan-2-yl-1H-pyrazol-4-ylmethyl]piperidin-4-ylamine]
0.032 | OCCCCNCc1cnn(-c2ccc(-c3ccc(F)cc3)cc2)c1-c1ccco1 [Example 617, 4-{[1-(4′-Fluorobiphenyl-4-yl)-5-furan-2-yl-1H-pyrazol-4-ylmethyl]amino}butan-1-ol]
0.031 | O=C1CN(Cc2cnn(-c3ccc(-c4ccc5c(c4)OCO5)cc3)c2-c2ccco2)CCN1 [Example 612, 4-[1-(4-Benzo-1,3-dioxol-5-ylphenyl)-5-furan-2-yl-1H-pyrazol-4-ylmethyl]piperazin-2-one]
0.026 | Fc1ccc(-c2ccc(-n3ncc(CNCCc4ccccn4)c3-c3ccco3)cc2)cc1 [Example 604, [1-(4′-Fluorobiphenyl-4-yl)-5-furan-2-yl-1H-pyrazol-4-ylmethyl]-(2-pyridin-2-ylethyl)amine]
0.016 | COCCCNCc1cnn(-c2ccc(-c3ccc(F)cc3)cc2)c1-c1ccco1 [Example 580, [1-(4′-Fluorobiphenyl-4-yl)-5-furan-2-yl-1H-pyrazol-4-ylmethyl]-(3-methoxypropyl)amine]
0.011 | OCC1CCN(Cc2cnn(-c3ccc(-c4ccc(F)cc4)cc3)c2-c2ccco2)C1 (centres unmarked) [Example 567, {1-[1-(4′-Fluorobiphenyl-4-yl)-5-furan-2-yl-1H-pyrazol-4-ylmethyl]pyrrolidin-3-yl}methanol]
